Results from patent US11834467B2, “Substituted indazoles as hematopoietic progenitor kinase 1 (HPK1) inhibitors” (1ST Biotherapeutics, Inc., priority 2020, dated 2023).
Where two headings read alike, the source gives them in different places.

Test system: human peripheral blood pan T cells
Experiment: IFNγ and IL-2 secretion analysis of human peripheral pan T cells
Type: cell-based
Details: CD3/CD28 stimulation, 100 nM Prostaglandin E2, 24 hr
Method: Human peripheral blood pan T cells were purchased from STEMCELL™ Technologies Inc. Human peripheral blood pan T cells were thawed and suspended in DMEM media (10% FBS and 100 Penicillin/Streptomycin). 8×10^4 T cells were seeded in 96-well plate and incubated with various concentration of compounds and 100 nM Prostaglandin E2 for 1 hr. T cells were stimulated with Dynabeads Human T-Activator CD3/CD28 (Life Technologies) at a 1:3 cells:beads ratio. […] Data were analyzed with an MESO Quickplex SQ120 (Mesoscale Discovery).

[1] = Homo sapiens, T-cell, 24 h, IFNγ secretion, read-out: IFNγ (EC50)
[2] = Homo sapiens, T-cell, 24 h, IL-2 secretion, read-out: IL-2 (EC50)

| EC50 [1] | EC50 [2] | EC50 (IFNγ secretion, read-out: IFNγ (EC50)) | Compound |
| --- | --- | --- | --- |
| < 0.2 µM | 0.2 to 1 µM | – | CCc1c(F)c(N(C)C)c2[nH]ncc2c1-c1cn2cc(NC(=O)[C@@H]3C[C@@H]3F)nc2cn1 [Example 26] |
| < 0.2 µM | – | – | CSc1c(F)c(SC)c2[nH]ncc2c1-c1cn2cc(NC(=O)[C@@H]3C[C@@H]3F)nc2cn1 [Example 27] |
| < 0.2 µM | 0.2 to 1 µM | – | CN(C)c1c(F)c(Cl)c(-c2cn3cc(NC(=O)[C@@H]4C[C@@H]4F)nc3cn2)c2cn[nH]c12 [Example 33] |
| < 0.2 µM | 0.2 to 1 µM | – | CCOc1c(F)c(Cl)c(-c2cn3cc(NC(=O)[C@@H]4C[C@@H]4F)nc3cn2)c2cn[nH]c12 [Example 34] |
| 0.2 to 1 µM | 0.2 to 1 µM | < 0.2 µM | CSc1c(F)c(Cl)c(-c2cn3cc(NC(=O)[C@@H]4C[C@@H]4F)nc3cn2)c2cn[nH]c12 [Example 38] |
| < 0.2 µM | 0.2 to 1 µM | – | CCN(C)c1c(F)c(Cl)c(-c2cn3cc(NC(=O)[C@@H]4C[C@@H]4F)nc3cn2)c2cn[nH]c12 [Example 41] |
| < 0.2 µM | 0.2 to 1 µM | – | CCOc1c(F)c(CC)c(-c2cn3cc(NC(=O)[C@@H]4C[C@@H]4F)nc3cn2)c2cn[nH]c12 [Example 44] |
| < 0.2 µM | 0.2 to 1 µM | – | CC(C)Nc1c(F)c(Cl)c(-c2cn3cc(NC(=O)[C@@H]4C[C@@H]4F)nc3cn2)c2cn[nH]c12 [Example 61, (1S,2S)—N-(6-(5-chloro-6-fluoro-7-(isopropylamino)-1H-indazol-4-yl)imidazo[1,2-a]pyrazin-2-yl)-2-fluorocyclopropane-1-carboxamide] |
| < 0.2 µM | < 0.2 µM | – | CC(C)c1c(F)c(Cl)c(-c2cn3cc(NC(=O)[C@@H]4C[C@@H]4F)nc3cn2)c2cn[nH]c12 [Example 64, (1S,2S)—N-(6-(5-chloro-6-fluoro-7-isopropyl-1H-indazol-4-yl)imidazo[1,2-a]pyrazin-2-yl)-2-fluorocyclopropane-1-carboxamide] |

The next lines start with the molecule.

| Compound | EC50 [1] | EC50 [2] | EC50 (IFNγ secretion, read-out: IFNγ (EC50)) |
| --- | --- | --- | --- |
| CCc1c(F)cc2[nH]ncc2c1-c1ccc2nc(NC(=O)[C@@H]3C[C@@H]3F)cn2n1 [Example 4] | < 0.2 µM | 0.2 to 1 µM | – |
| CCc1c(F)c(N(C)C)c2[nH]ncc2c1-c1ccc2nc(NC(=O)[C@@H]3C[C@@H]3F)cn2n1 [Example 7] | 0.2 to 1 µM | 0.2 to 1 µM | – |
| CCOc1c(F)c(CC)c(-c2ccc3nc(NC(=O)[C@@H]4C[C@@H]4F)cn3n2)c2cn[nH]c12 [Example 13] | 0.2 to 1 µM | 0.2 to 1 µM | – |
| CN(C)c1c(F)c(C(F)(F)F)c(-c2cn3cc(NC(=O)[C@@H]4C[C@@H]4F)nc3cn2)c2cn[nH]c12 [Example 40] | < 0.2 µM | 0.2 to 1 µM | – |
| CCN(C)c1c(F)c(C(F)(F)F)c(-c2cn3cc(NC(=O)[C@@H]4C[C@@H]4F)nc3cn2)c2cn[nH]c12 [Example 42] | < 0.2 µM | 0.2 to 1 µM | – |
| CN(c1c(F)c(Cl)c(-c2cn3cc(NC(=O)[C@@H]4C[C@@H]4F)nc3cn2)c2cn[nH]c12)C1CC1 [Example 58] | < 0.2 µM | 0.2 to 1 µM | – |
| CC(C)N(C)c1c(F)c(Cl)c(-c2cn3cc(NC(=O)[C@@H]4C[C@@H]4F)nc3cn2)c2cn[nH]c12 [Example 62] | < 0.2 µM | 0.2 to 1 µM | – |
